Data published in PubChem BioAssay (NCI).
Where “and” joins values, the source holds several entries; their conditions need not be identical. Identical values can stand only once.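 48-hour exposure; five concentrations; linearly interpolated endpoints. Abbreviation: GI50, concentration required for 50% inhibition of growth. The concentration for full growth arrest is given as TGI.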

What was measured:
Assay in all cases: inhibition of tumour cell growth, NCI panel, 48 h
NCI-H226 lung = system: NCI-H226 lung
KM12 colon = system: KM12 colon
HCC-2998 colon = system: HCC-2998 colon
NCI-H522 lung = system: NCI-H522 lung
SK-MEL-2 melanoma = system: SK-MEL-2 melanoma
HL-60(TB) leukemia = system: HL-60(TB) leukemia
HT29 colon = system: HT29 colon
SK-OV-3 ovarian = system: SK-OV-3 ovarian
786-0 renal = system: 786-0 renal
M14 melanoma = system: M14 melanoma

SMILES | TGI (NCI-H226 lung) | TGI (KM12 colon) | TGI (HCC-2998 colon) | TGI (NCI-H522 lung) | TGI (SK-MEL-2 melanoma) | TGI (HL-60(TB) leukemia) | TGI (HT29 colon) | TGI (SK-OV-3 ovarian) | TGI (786-0 renal) | TGI (M14 melanoma) | GI50 (NCI-H226 lung) | GI50 (KM12 colon) | GI50 (HCC-2998 colon) | GI50 (NCI-H522 lung) | GI50 (SK-MEL-2 melanoma) | GI50 (HL-60(TB) leukemia) | GI50 (HT29 colon) | GI50 (SK-OV-3 ovarian) | GI50 (786-0 renal) | GI50 (M14 melanoma)
CC(=O)Oc1c(C)c(-c2ccccc2)c(C)c(-c2ccccc2)c1C(=S)c1ccccc1 | > 100 µM | > 100 µM | > 100 µM | > 100 µM | > 100 µM | > 100 µM | > 100 µM | > 100 µM | > 100 µM | > 100 µM | – | – | – | – | – | – | – | – | – | –
CNC(=O)OCc1c(COC(=O)NC)c(-c2ccc(-c3ccccc3)cc2)n(C)c1C | 32.5 µM | 24.9 µM | 13.1 µM | 4.04 µM | 4.96 µM | 18.1 µM | 13.9 µM | 11.8 µM | 10.2 µM | 6.84 µM | – | – | – | – | – | – | – | – | – | –
CN(C)CCC(=O)N1C/C(=C\c2ccc(Cl)c(Cl)c2)C(=O)/C(=C/c2ccc(Cl)c(Cl)c2)C1 | 1.86 µM | 0.948 µM | 0.955 µM | 0.455 µM | 3.34 µM | 0.162 µM | 0.495 µM | 3.76 µM | 0.323 µM | 0.979 µM | – | – | – | – | – | – | – | – | – | –
CS(=O)(=O)CCNCc1coc(-c2ccc3ncnc(Nc4ccc(OCc5ccccc5)cc4)c3c2)c1 | > 25 µM | 11.9 µM | 7.91 µM | 6.9 µM | 8.92 µM | 9.13 µM | 7.77 µM | > 16.2 µM | 9.12 µM | 9.11 µM | > 12.8 µM | 4.68 µM | 4.16 µM | 3.32 µM | 4.55 µM | 4.15 µM | 3.4 µM | 1.71 µM | 4.16 µM | 4440 nM
CCN(CC)CCCC(CCl)Nc1ccnc2cc(Cl)ccc12 (centres undefined) | 85.2 µM and > 39.1 µM | 34 µM and 50.6 µM | 27.8 µM | 67.8 µM and > 73.6 µM | 57.5 µM and > 100 µM | 72.8 µM and > 31.6 µM | > 100 µM | > 100 µM | 32.8 µM and 62 µM | 4.38 µM and 4.92 µM | 34.7 µM and 3.99 µM | 16.7 µM and 16.2 µM | 11.9 µM | 25.7 µM and 25.1 µM | 25.4 µM and 35 µM | 15.5 µM and 7.99 µM | 14.7 µM and 6.38 µM | > 100 µM | 14.8 µM and 18 µM | 2130 nM and 2390 nM
CCCCCCCCCCCCCCCCCCOC[C@H](COP(=O)(O)O[C@H]1[C@H](O)[C@@H](O)[C@H](O)C[C@H]1O)OC | > 100 µM and 44.5 µM | > 100 µM and 28.1 µM | > 100 µM and 20.5 µM | > 100 µM and 25.4 µM | > 100 µM and 30.2 µM | > 100 µM and 23.3 µM | > 100 µM and 26.2 µM | > 100 µM and 34 µM | > 100 µM and 57.8 µM | > 100 µM and 24.7 µM | > 100 µM and 24 µM | 25.9 µM and 4.67 µM | 24.2 µM and 6.97 µM | 36.5 µM and 11.4 µM | > 100 µM and 16.3 µM | 35 µM and 9.09 µM | 58.7 µM and 13.1 µM | > 100 µM and 17.4 µM | > 100 µM and 15.9 µM | > 100000 nM and 12000 nM
O=C(Oc1ccc[nH]c1=O)c1cc([N+](=O)[O-])cc([N+](=O)[O-])c1 | > 100 µM | > 100 µM | > 100 µM | > 100 µM | > 100 µM | > 100 µM | > 100 µM | > 100 µM | > 100 µM | > 100 µM | > 100 µM | 36.3 µM | > 100 µM | > 100 µM | > 100 µM | 53.6 µM | > 100 µM | > 100 µM | > 100 µM | > 100000 nM
COc1cccc2c1C(=N)c1c(O)c3c(c(O)c1C2=O)C[C@@](O)(C(C)=O)C[C@@H]3O[C@H]1C[C@H](N)[C@H](O)[C@H](C)O1 | 1.4 µM | 8.68 µM | 2.51 µM | 1.5 µM | 4.95 µM | 2.36 µM | 2.09 µM | 2.6 µM | 4.28 µM | 4.78 µM | 0.167 µM | 1.32 µM | 0.474 µM | 0.256 µM | 2.28 µM | 0.112 µM | 0.316 µM | 0.288 µM | 0.254 µM | 496 nM
O=C(O)c1ccc(CN2CCC(CN[C@@H]3C[C@H]3c3ccccc3)CC2)cc1 | > 100 µM | > 100 µM | > 100 µM | > 100 µM | > 100 µM | > 100 µM | > 100 µM | > 100 µM | > 100 µM | > 100 µM | > 100 µM | > 100 µM | > 100 µM | > 100 µM | > 100 µM | > 100 µM | > 100 µM | > 100 µM | > 100 µM | > 100000 nM
CC(C)(C)c1cc([N+](=O)[O-])cc([N+](=O)[O-])c1O | > 10 µM | > 10 µM | > 10 µM | > 10 µM | > 10 µM | > 10 µM | > 10 µM | > 10 µM | > 10 µM | > 10 µM | – | – | – | – | – | – | – | – | – | –
Cc1nnc(-c2ccc(C)c(-c3ccc(C(=O)Nc4cccc(C#N)c4)cc3)c2)o1 | > 25 µM | > 25 µM | > 25 µM | > 25 µM | > 25 µM | > 25 µM | > 25 µM | > 25 µM | > 25 µM | > 25 µM | > 10.9 µM | > 25 µM | > 25 µM | > 25 µM | > 25 µM | > 25 µM | > 25 µM | > 25 µM | > 25 µM | > 25000 nM
CCCCCCCCCCCC(=O)OCCOCCOCCOCCOCCOC(=O)CCCCCCCCCCC | > 100 µM | > 100 µM | > 100 µM | > 100 µM | > 100 µM | > 100 µM | > 100 µM | > 100 µM | > 100 µM | > 100 µM | – | – | – | – | – | – | – | – | – | –
CC/C=C\C[C@H]1CC=C2C(=O)C=C[C@@H]2CC=CCCCC(=O)O[C@@H](CCCCC)CC=C2C(=O)C=C[C@@H]2CC=CCCCC(=O)O[C@@H](CCCCC)CC=C2C(=O)C=C[C@@H]2CC=CCCCC(=O)O[C@@H](CCCCC)CC=C2C(=O)C=C[C@@H]2CC=CCCCC(=O)O1 | > 7.9 µM | > 7.9 µM | 4.07 µM | 4.48 µM | 5.38 µM | 6.26 µM | 6.93 µM | > 7.9 µM | 6.51 µM | 7.46 µM | 2.48 µM | 2.51 µM | 1.86 µM | 1.76 µM | 2.21 µM | 2.09 µM | 2.86 µM | 7.64 µM | 2.29 µM | 2090 nM
NC1=NN(c2ccccc2)C(=O)C1C(=O)CCC(=O)Nc1cccc(Cl)c1 (centres undefined) | > 100 µM | > 100 µM | > 100 µM | > 100 µM | > 100 µM | > 100 µM | > 100 µM | > 100 µM | > 100 µM | > 100 µM | – | – | – | – | – | – | – | – | – | –
COCCOC(=O)C1=C(O)c2ccccc2S(=O)(=O)N1C | > 100 µM | > 100 µM | > 100 µM | > 100 µM | > 100 µM | > 100 µM | > 100 µM | > 100 µM | > 100 µM | > 100 µM | – | – | – | – | – | – | – | – | – | –
Oc1ccc2ccccc2c1N=Nc1cccc2ccccc12 | > 100 µM | > 100 µM | > 100 µM | > 100 µM | > 100 µM | > 100 µM | > 100 µM | > 100 µM | > 100 µM | > 100 µM | – | – | – | – | – | – | – | – | – | –
COc1ccc(C(C#N)NC23CC4CC(CC(C4)C2)C3)cc1 (centres undefined) | > 100 µM | > 100 µM | > 100 µM | > 100 µM | > 100 µM | > 100 µM | > 100 µM | > 100 µM | > 100 µM | > 100 µM | – | – | – | – | – | – | – | – | – | –
O=C1C=CC(=O)C2C1C1(Cl)C(Cl)=C(Cl)C2(Cl)C1(Cl)Cl (centres undefined) | 49.1 µM | 8.95 µM | 20.4 µM | 13.1 µM | 8.99 µM | 11 µM | 23.9 µM | 21.1 µM | 30.1 µM | 13.3 µM | 10.8 µM | 2.63 µM | 6.45 µM | 3.73 µM | 3.18 µM | 2.71 µM | 7.54 µM | 7.85 µM | 12.5 µM | 3350 nM
C[C@]12CC=CC(=O)[C@@]1(C)CCC(=O)C2 | > 100 µM | > 100 µM | > 100 µM | > 100 µM | > 100 µM | > 100 µM | > 100 µM | > 100 µM | > 100 µM | > 100 µM | – | – | – | – | – | – | – | – | – | –
C#CC1(O)C(COP(=O)(O)OCC(COP(=O)(O)OCC2OC(n3cc(F)c(=O)[nH]c3=O)CC2O)OCCCCCCCCCCCCCCCCCC)OC(n2ccc(N)nc2=O)C1O (centres undefined) | – | > 34.1 µM | 1.26 µM | > 34.8 µM | 6.24 µM | > 100 µM | > 71.9 µM | 76.3 µM | 17 µM | 6.45 µM | 0.113 µM | 0.0933 µM | 0.0752 µM | 0.712 µM | 0.481 µM | 0.982 µM | 0.104 µM | 10.1 µM | 0.0379 µM | 215 nM
N#C/C(=C/c1cccc(Oc2ccccc2)c1)c1ccccc1 | > 100 µM | > 100 µM | > 100 µM | > 100 µM | > 100 µM | > 100 µM | > 100 µM | > 100 µM | > 100 µM | > 100 µM | – | – | – | – | – | – | – | – | – | –
